According to patent publication US8754115B2, “Fungicidal pyrazoles” (E I du Pont de Nemours and Company, priority 2010, dated 2014):
Marks after values point to notes of the source that are not given here.

Legend:
Assay type in all cases: in vivo
Septoria tritici = test: Test D: preventive spray on wheat seedlings, visual disease rating (wheat leaf blotch)
Method in brief: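 Protection was scored visually on a 0–100% disease-control scale versus controls, 19 days after plants were moved to 20 °C following 48 h of 24 °C saturated humidity. Spore inoculation with S. tritici took place one day after a preventive run-off spray, usually at 200 ppm (800 g/ha) and at 40 ppm where asterisked.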

[1] = system: Puccinia recondite f. sp. tritici; test: Test E2: preventive spray on wheat seedlings, visual disease rating (wheat leaf rust)
Method in brief: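 Wheat seedlings were inoculated with leaf rust spores one day after a run-off spray of compound at 200 ppm (asterisk: 40 ppm) in 50/50 acetone/water with 250 ppm Trem 014. Incubation: 24 h saturated humidity, 20 °C; then 7 days growth chamber, 20 °C. Disease control scored visually, 0–100% relative to controls.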

[2] = system: Blumeria graminis f. sp. tritici; test: Test F: preventive spray on wheat seedlings, visual disease rating (wheat powdery mildew)
Method in brief: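 Visual ratings (0–100% control relative to controls) taken 8 days after spore-dust inoculation at 20° C. Inoculation followed one day after a protective run-off spray of 200 ppm suspension, equal to 800 g/ha, or 40 ppm where flagged, made in acetone/water with 250 ppm surfactant.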

Alternaria solani = test: Test B: preventive spray on tomato seedlings, visual disease rating (tomato early blight)
Method in brief: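 Compounds were suspended at 200 ppm (asterisked values at 40 ppm) in acetone/water with surfactant and sprayed to run-off on tomato seedlings, 200 ppm being equivalent to 800 g/ha. A. solani spores were inoculated the next day, with 48 h at 27 °C in saturated air, then 5 days at 20 °C. Disease control was rated visually, 0–100% relative to controls.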

Septoria nodorum = test: Test C: preventive spray on wheat seedlings, visual disease rating (Septoria glume blotch)
Method in brief: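 Wheat seedlings were sprayed to run-off with 200 ppm suspension (40 ppm where marked; 200 ppm ≈ 800 g/ha) in acetone/water with 250 ppm Trem 014, then inoculated next day with Septoria nodorum spores. Incubation was 48 h saturated at 24 °C, then 6 days at 20 °C; visual rating 0–100% disease control versus controls.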

[3] = system: Puccinia recondite f. sp. tritici; test: Test E1: curative spray on wheat seedlings after inoculation, visual disease rating (wheat leaf rust)
Method in brief: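 Seedlings inoculated with rust spores, held 24 h in saturated atmosphere at 20 °C, then 2 days at 20 °C before curative spray to run-off with test suspension (200 ppm ≈ 800 g/ha, or 40 ppm where marked) in acetone/water with surfactant. Visual disease control rating (0–100) after 6 further days at 20 °C.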

Botrytis cinerea = test: Test A: preventive spray on tomato seedlings, visual disease rating (tomato Botrytis)
Method in brief: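 Preventive test: Botrytis cinerea spores applied one day after run-off spraying at 200 ppm (≈800 g/ha), or 40 ppm where asterisked. Incubation 48 h at 20 °C in saturated air, then 3 days at 24 °C; disease scored visually from 0 (no control) to 100 (complete control) versus untreated.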

[4] = no asterisk: standard test suspension, not 40 ppm
[5] = no asterisk: standard test suspension, not 40 ppm, 100 = 100% disease control, 0 = none
[6] = asterisk: 40 ppm test suspension

| Compound | Test D rating (% disease control) (Septoria tritici; [4]) | Test E2 rating (% disease control) [1, 4] | Test F rating (% disease control) [2, 4] | Test B rating (% disease control) (Alternaria solani; [4]) | Test C rating (% disease control) (Septoria nodorum; [4]) | Test E1 rating (% disease control) [3, 4] | Test A rating (% disease control) (Botrytis cinerea; [5]) | Test B rating (% disease control) (Alternaria solani; [6]) | Test C rating (% disease control) (Septoria nodorum; [6]) | Test E1 rating (% disease control) [3, 6] | Test D rating (% disease control) (Septoria tritici; [6]) | Test E2 rating (% disease control) [1, 6] | Test F rating (% disease control) [2, 6] | Test A rating (% disease control) (Botrytis cinerea; [6]) |
| --- | --- | --- | --- | --- | --- | --- | --- | --- | --- | --- | --- | --- | --- | --- |
| Cc1nn(C)c(-c2c(F)cccc2F)c1Nc1ccc(F)cc1F [compound 64] | 48% | 55% | 97% | 0% | 0% | 0% | 99% | – | – | – | – | – | – | – |
| Cn1nc(C#N)c(C(=O)c2ccc(F)cc2Cl)c1-c1c(F)cccc1F [Compound 52, 4-(2-chloro-4-fluorobenzoyl)-5-(2,6-difluorophenyl)-1-methyl-1H-pyrazole-3-carbonitrile] | 100% | 100% | 100% | 100% | 99% | 98% | 100% | – | – | – | – | – | – | – |
| Cc1nn(C)c(-c2ccc(F)cc2F)c1Oc1ccc(C#N)cc1Cl [compound 35] | 100% | 73% | 0% | 0% | 0% | 9% | 98% | – | – | – | – | – | – | – |
| (2,4-difluorophenyl)-[5-(2,4-difluorophenyl)-1,3-dimethyl-1H-pyrazol-4-yl]methanone [Compound 32] | 100% | 9% | 0% | 96% | 0% | 0% | 0% | – | – | – | – | – | – | – |
| Cc1nn(C)c(-c2c(F)cccc2Cl)c1C(O)c1ccc(F)cc1F (stereo not shown) [compound 33] | 100% | 100% | 100% | 100% | 100% | 99% | 100% | – | – | – | – | – | – | – |
| Cc1nn(C)c(-c2c(F)cccc2F)c1C(O)c1ccc(F)cc1Cl (single isomer, unassigned) [compound 86] | 100% | 100% | 100% | – | – | – | 99% | 100* % | 99* % | 99* % | – | – | – | – |
| α-(2,4-difluorophenyl)-5-(2,4-difluorophenyl)-1,3-dimethyl-1H-pyrazole-4-methanol [Compound 72] | 99% | 40% | 99% | 0% | 0% | 0% | 100% | – | – | – | – | – | – | – |
| Cc1nn(C)c(-c2ccc(F)cc2F)c1Nc1ccc(F)cc1Cl [compound 57] | – | – | – | – | – | – | – | 0* % | 0* % | 0* % | 81* % | 18* % | 97* % | 99* % |
| 4-[(4-chlorophenyl)thio]-5-(2,6-difluorophenyl)-1,3-dimethyl-1H-pyrazole [Compound 56] | 100% | 99% | 100% | 59% | 0% | 0% | 100% | – | – | – | – | – | – | – |
| COc1cc(F)c(C(O)c2c(C)nn(C)c2-c2c(F)cccc2F)c(F)c1 (stereo not shown) [compound 16] | 100% | 100% | 93% | 99% | 0% | 54% | 100% | – | – | – | – | – | – | – |
